{
  "source": "paper PMC12481569",
  "about": "“Novltex: A New Class of Antibiotics with Potent Activity against Multidrug-Resistant Bacterial Pathogens–Design, Synthesis, and Biological Evaluation” (Journal of Medicinal Chemistry, 2025)",
  "key": {"[1]": {"tested_on": "MDR clinical strains of S. aureus and E. faecium", "assay_type": "cell-based, Staphylococcus aureus; Enterococcus faecium", "conditions": "range over 4 S. aureus and 3 E. faecium strains", "method": "MICs were performed as previously reported 4. For MIC testing all peptides were dissolved in DMSO.\nBacterial cultures were grown overnight on Mueller-Hinton Agar (MHA) plates and adjusted to a final inoculum of 10^5 – 10^6 CFU/mL. 100 µl of ino culum in Meuller -Hinton broth (MHB) was mixed with equal volume of peptides (dissolved in MHB) at 2x their concentration in a 96 well plate . For daptomycin MIC determination, the same protocol was followed with the addition of 50 mg/L calcium chloride to the medium. MIC values were determined in the media contain ing polysorbate 80 (0.002%, v/v) to prevent non -specific adsorption of the peptides to plastic surfaces. The final peptides concentrations ranged from 0.0625 – 32 µg/mL. The 96 well plates were then incubated at 37 °C for 24 h. All the experiments were performed in two independent duplicates and the MIC was determined as the lowest concentration in which no visible growth was observed. […]"}, "[2]": {"tested_on": "human primary dermal fibroblasts", "experiment": "Cytotoxicity, MTS-based assay", "assay_type": "cell-based", "conditions": "up to 50 μg/mL, 24 or 48 h, three independent experiments in triplicate", "method": "4 Cytotoxicity evaluation of analogue 12. Human primary dermal fibroblasts (A), liver cell line HepG2 (B), and kidney cell line HEK293T (C) cells (5 × 10^3 cells/well in 96-well plates) were treated with increasing concentrations of analogue 12 or 1 μM staurosporine (STS, used as a positive toxicity control) for 24 or 48 h, as indicated. Viability of cells was determined using an MTS-based assay. Results (% cell viability) are the mean ± SD of three independent experiments performed in triplicate. (D) Freshly collected human red blood cells (RBCs) were exposed to increasing concentrations of 12 or Triton X-100 (TX), as indicated, for 1 h. Hemolytic activity (% hemolysis) was determined by spectrophotometrically measuring the release of hemoglobin compared to that with TX (used as a positive control). Results are the mean ± SD of 4 independent experiments performed in duplicate using blood samples from four different anonymous healthy donors. […]\nBacterial cultures were grown overnight on Mueller-Hinton Agar (MHA) plates and adjusted to a final inoculum of 10^5 – 10^6 CFU/mL. […] MIC values were determined in the media contain ing polysorbate 80 (0.002%, v/v) to prevent non -specific adsorption of the peptides to plastic surfaces. […] All the experiments were performed in two independent duplicates and the MIC was determined as the lowest concentration in which no visible growth was observed. […]"}},
  "note": "Positions of bridges follow the written chain, without caps; N, C: chain ends. Non-standard residues stand in square brackets, D forms with d. Residues, ends and D or L forms follow the SMILES beside them. dCha = N[C@H](CC1CCCCC1)C(=O)O",
  "data": [
    {"smiles": "CC(C)C[C@@H]1NC(=O)[C@H](C)NC(=O)[C@H](NC(=O)[C@H](CO)NC(=O)[C@@H](CCCCN)NC(=O)[C@@H](CC2CCCCC2)NC(=O)[C@@H](N)Cc2ccccc2)[C@H](C)OC(=O)[C@H](CC(C)C)NC1=O", "note": "[analogue 12, Leu2Cha–Novltex] (H-F[dCha][dK]S[dT]ALL; ester 5-C)", "values": [
      {"measurement": "MIC against both groups of MDR clinical strains", "setting": "[1]", "value": "0.063 to 0.5", "unit": "µg/mL"},
      {"measurement": "cytotoxicity (cell viability), primary dermal fibroblasts", "setting": "[2]", "value": "no major cytotoxicity"}
    ]}
  ]
}
